Results published in publication PMC7443477 (British Journal of Pharmacology, 2020).

Assays:
Type in all cases: cell-based
[1] = target: LPA1 receptor (native, systemic sclerosis dermal fibroblasts) (Homo sapiens, UniProt Q92633); test: FLIPR calcium flux, primary SSc dermal fibroblasts; details: agonist; 0.3% fatty acid-free human serum albumin; Gi/Go coupled
[2] = target: T1, LPA3 receptor (Homo sapiens, UniProt Q9UBY5); test: FLIPR calcium flux, CHO cells
T1 sequence (Q9UBY5 1-353): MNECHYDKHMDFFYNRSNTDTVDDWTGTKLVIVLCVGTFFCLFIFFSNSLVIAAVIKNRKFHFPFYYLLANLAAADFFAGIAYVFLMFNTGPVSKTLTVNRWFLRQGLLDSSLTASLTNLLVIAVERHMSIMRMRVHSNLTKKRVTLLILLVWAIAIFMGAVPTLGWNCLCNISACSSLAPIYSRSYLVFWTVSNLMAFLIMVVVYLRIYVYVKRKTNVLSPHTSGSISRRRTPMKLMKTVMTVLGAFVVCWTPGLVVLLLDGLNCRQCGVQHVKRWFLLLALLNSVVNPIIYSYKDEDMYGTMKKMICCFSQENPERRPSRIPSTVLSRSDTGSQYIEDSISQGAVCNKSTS

[3] = target: LPA5 receptor (Homo sapiens, UniProt Q9H1C0); test: FLIPR calcium flux, CHO cells
LPA5 receptor, sequence (Q9H1C0 whole entry): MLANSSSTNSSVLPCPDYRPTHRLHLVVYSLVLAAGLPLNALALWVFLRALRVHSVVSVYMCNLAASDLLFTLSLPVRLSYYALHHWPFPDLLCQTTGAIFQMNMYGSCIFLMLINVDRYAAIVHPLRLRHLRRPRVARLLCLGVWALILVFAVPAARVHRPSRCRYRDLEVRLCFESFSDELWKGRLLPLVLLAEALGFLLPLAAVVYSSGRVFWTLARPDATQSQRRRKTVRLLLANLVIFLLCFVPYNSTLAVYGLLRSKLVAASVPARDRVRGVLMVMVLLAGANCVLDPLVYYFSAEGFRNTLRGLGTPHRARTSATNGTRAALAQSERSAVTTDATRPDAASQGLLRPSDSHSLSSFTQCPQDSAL

[4] = target: LPA2 receptor (Homo sapiens, UniProt Q9HBW0); test: FLIPR calcium flux, CHO cells
LPA2 receptor, sequence (Q9HBW0 whole entry): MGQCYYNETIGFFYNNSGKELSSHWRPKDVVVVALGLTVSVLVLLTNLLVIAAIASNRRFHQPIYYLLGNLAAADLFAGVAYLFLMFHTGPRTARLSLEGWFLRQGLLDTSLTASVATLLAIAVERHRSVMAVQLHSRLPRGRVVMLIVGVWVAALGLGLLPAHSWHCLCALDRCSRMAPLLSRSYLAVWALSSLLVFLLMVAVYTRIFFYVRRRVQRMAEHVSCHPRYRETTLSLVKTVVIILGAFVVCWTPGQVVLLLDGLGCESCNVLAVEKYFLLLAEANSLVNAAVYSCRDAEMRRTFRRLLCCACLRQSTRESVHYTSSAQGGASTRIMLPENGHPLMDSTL

LPA1 receptor (native, systemic sclerosis dermal fibroblasts), sequence (Q92633 whole entry): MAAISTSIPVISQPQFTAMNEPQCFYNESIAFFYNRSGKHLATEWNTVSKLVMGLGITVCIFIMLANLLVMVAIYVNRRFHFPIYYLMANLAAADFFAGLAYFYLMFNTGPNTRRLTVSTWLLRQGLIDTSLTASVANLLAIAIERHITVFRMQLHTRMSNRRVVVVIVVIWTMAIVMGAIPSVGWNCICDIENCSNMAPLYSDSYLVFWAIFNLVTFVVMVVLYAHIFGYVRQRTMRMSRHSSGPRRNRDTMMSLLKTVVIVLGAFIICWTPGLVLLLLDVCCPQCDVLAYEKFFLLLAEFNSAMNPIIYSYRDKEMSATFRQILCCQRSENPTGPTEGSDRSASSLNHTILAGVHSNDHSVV

EC50 [1]	IC50 [2]	IC50 [3]	IC50 [4]	SMILES
0.15 ± 0.05 µM	–	–	–	CCCCCCCC/C=C\CCCCCCCC(=O)OC[C@@H](O)COP(=O)(O)O [LPA 18:1]
–	> 10 µM	> 10 µM	> 10 µM	COc1ccc(C(=O)NC2(C(=O)O)Cc3ccccc3C2)cc1OCCc1cccc(C)c1 [SAR100842, 2‐(4‐methoxy‐3‐(2‐m‐tolyl‐ethoxy)‐benzoylamino)‐indan‐2‐carboxylic acid]
